Reference: patent publication US7767625B2 (dated 2010)

melting point: 118 to 119 °C
Compound: C=Cc1c(NC(=O)c2cn(C)nc2C(F)(F)F)cccc1C(C)(C)C
